Assay results reported in PubChem BioAssay (NCI).
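Each compound was tested at five concentrations against cells in 96-well plates for 48 hours. The concentration for 50% growth inhibition is given as GI50. TGI marks complete inhibition of growth.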

Assays:
Assay in all cases: NCI tumour cell line growth inhibition, 48 h
DLD-1 colon = tested on: DLD-1 colon
DMS 114 small cell lung = tested on: DMS 114 small cell lung
HOP-18 NSCLC = tested on: HOP-18 NSCLC
HS 578T breast = tested on: HS 578T breast
MDA-MB-231 breast = tested on: MDA-MB-231 breast
T-47D breast = tested on: T-47D breast
RXF-631 renal = tested on: RXF-631 renal
MDA-N = tested on: MDA-N

| Compound | TGI (DLD-1 colon) | TGI (DMS 114 small cell lung) | TGI (HOP-18 NSCLC) | TGI (HS 578T breast) | TGI (MDA-MB-231 breast) | TGI (T-47D breast) | GI50 (HS 578T breast) | GI50 (MDA-MB-231 breast) | GI50 (T-47D breast) | TGI (RXF-631 renal) | TGI (MDA-N) |
| --- | --- | --- | --- | --- | --- | --- | --- | --- | --- | --- | --- |
| C1CN2CCO[SiH](O1)OCC2 | > 100 µM | > 100 µM | > 100 µM | – | – | – | – | – | – | – | – |
| O=C1C=CC2(O)OCC3C=C4O[C@@H]5OC6(CCCCC6)O[C@@H]5C4[C@@H]2[C@@H]13 (stereo partly drawn) | 50.6 µM | 69.2 µM | > 100 µM | – | – | – | – | – | – | – | – |
| O=[N+]([O-])/C=C/c1ccc2ccccc2c1 | – | – | – | > 61.8 µM | 13.4 µM | 2.13 µM | – | – | – | – | – |
| COC(=O)[C@]12CC[C@@H](C)[C@H](C)[C@@H]1C1=CC[C@@H]3[C@@]4(C)C(C=O)=C[C@@](C)(COS(C)(=O)=O)C4=CC[C@@]3(C)[C@]1(C)CC2 | – | – | – | 0.711 µM | 0.578 µM | 0.47 µM | 0.234 µM | 0.232 µM | 0.158 µM | – | – |
| CCN1C(=O)N(CC)C2C1NC(=S)N2/N=C/C=C/c1ccccc1 (stereo not drawn) | – | – | – | > 100 µM | > 28.1 µM | > 100 µM | 0.0824 µM | 0.376 µM | 21.5 µM | – | – |
| O=C1Nc2ccc(-c3cccnc3)cc2/C1=C/c1cc(Br)c(O)c(Br)c1 | – | – | – | > 22 µM | > 25 µM | > 25 µM | 5.67 µM | 7.41 µM | 10.6 µM | – | – |
| OCc1ccc(-c2ccc(-c3ccc(CO)o3)o2)o1 | – | – | – | > 62.6 µM | > 100 µM | > 100 µM | > 31.2 µM | 33.1 µM | 22.7 µM | – | – |
| Cc1nc2sccn2c1C(=O)NNC(N)=S | > 100 µM | > 100 µM | > 100 µM | – | – | – | – | – | – | – | – |
| N#Cc1c(-c2ccccc2)c(-c2ccccc2)cc2c(=O)c3ccc(Cl)cc3[nH]c12 | > 100 µM | – | > 100 µM | – | – | – | – | – | – | – | – |
| CCOC(=O)C1=C(C)N(NC(N)=O)C2(N)N(NC(N)=O)C(C)=C(C(=O)OCC)C12C#N (stereo not drawn) | > 100 µM | > 100 µM | – | – | – | – | – | – | – | > 100 µM | – |
| N#Cc1ccccc1Sc1ccccc1N | > 100 µM | > 100 µM | > 100 µM | – | – | – | – | – | – | – | – |
| C#COc1cccc(Nc2ncnc3cc(NC(=O)[C@@H](C)Cl)ccc23)c1 | – | – | – | > 62.5 µM | > 62.5 µM | > 62.5 µM | 7.88 µM | 17.2 µM | 22.5 µM | – | – |
| Nc1c(C(=O)Nc2ccccc2)sc2nc3c(cc12)C(=O)CCC3 | – | – | – | > 72.4 µM | > 100 µM | > 100 µM | 0.524 µM | 2.32 µM | 1.46 µM | – | – |
| CCOC(=O)C1C(c2ccc(Br)cc2)N(Cc2ccccc2)C(c2ccc(Br)cc2)C(C(=O)OC)S1(=O)=O (stereo not drawn) | > 100 µM | > 100 µM | 72.9 µM | – | – | – | – | – | – | – | – |
| N#CC(C(=O)Nc1ccccc1)C1=C(Cl)C(=O)c2ccccc2C1=O (stereo not drawn) | 40.2 µM | 41.7 µM | 22.7 µM | – | – | – | – | – | – | – | – |
| NC1CCC2(O)c3ccccc3C2C1 (stereo not drawn) | – | > 100 µM | > 100 µM | – | – | – | – | – | – | – | – |
| O=C(Nc1ccc(-n2cc(-c3ccncc3)c(-c3ccc(Cl)c(O)c3)n2)cc1)c1cc(C(F)(F)F)cc(C(F)(F)F)c1 | – | – | – | > 100 µM | 21.6 µM | 9.35 µM | 5.32 µM | 3.29 µM | 2.16 µM | – | – |

| Compound | TGI (DLD-1 colon) | TGI (DMS 114 small cell lung) | TGI (HOP-18 NSCLC) | TGI (HS 578T breast) | TGI (MDA-MB-231 breast) | TGI (T-47D breast) | GI50 (HS 578T breast) | GI50 (MDA-MB-231 breast) | GI50 (T-47D breast) | TGI (RXF-631 renal) | TGI (MDA-N) |
| --- | --- | --- | --- | --- | --- | --- | --- | --- | --- | --- | --- |
| [O-][n+]1c2cccc(O)c2[n+]([O-])c2cccc(O)c21 | – | – | – | > 100 µM | – | > 100 µM | – | – | – | – | > 100 µM |
| CN(C)CCCOc1ccc(NC2=C(Cl)C(=O)C(Nc3ccc(OCCCN(C)C)cc3)=C(Cl)C2=O)cc1 | – | – | – | 4.2 µM | 1.49 µM | 4.96 µM | 1.59 µM | 0.656 µM | 1.96 µM | – | – |
| CC(=O)Nc1cccc(C#Cc2cncnc2Nc2ccc(OCc3cccc(F)c3)c(Cl)c2)c1 | – | – | – | > 25 µM | > 25 µM | > 25 µM | 10.2 µM | 15.6 µM | 3.7 µM | – | – |
| OC1=CN=C(c2ccccc2)Oc2ccccc21 | > 100 µM | > 100 µM | – | – | – | – | – | – | – | > 100 µM | – |
| CCC(Oc1ccc(OC)c2c1C(=O)CCC2)C(=O)O (stereo not drawn) | > 100 µM | > 100 µM | – | – | – | – | – | – | – | – | – |
| CN1CCCc2nc3ccccc3n2C1 | > 100 µM | > 100 µM | > 100 µM | – | – | – | – | – | – | – | – |
| S=C(Sc1ccc(Cl)cc1)Sc1ccc(Cl)cc1 | – | – | – | 16.3 µM | 4.36 µM | 5.72 µM | 3.96 µM | 2.19 µM | 1.94 µM | – | – |
| C[C@]12CCc3nc(Nc4ccc(O)cc4)sc3C1=CC[C@@H]1[C@@H]2CC[C@]2(C)/C(=N/NC(N)=S)CC[C@@H]12 | – | – | – | 6.36 µM | 4.79 µM | 3.57 µM | 1.75 µM | 1.88 µM | 1.51 µM | – | – |
| N#CN1CC[C@H](C(=O)Nc2ncc(-c3ccccc3)s2)C1 | – | – | – | 5.05 µM | 4.65 µM | 3.35 µM | 0.811 µM | 0.41 µM | 0.483 µM | – | – |
| CC(C)(C)C1=NO[C@H]2[C@@H](NC(=O)c3ccccc3)CC[C@@H]12 | > 100 µM | > 100 µM | – | – | – | – | – | – | – | – | – |
| CC(C)(C)O/N=C/c1cc(NC(=S)c2ccccc2)ccc1Cl | – | – | – | 63 µM | 40.3 µM | 62.5 µM | – | – | – | – | 29.9 µM |
| O=C(Nc1ccccc1C(=O)NC(=O)c1ccccc1NC(=O)c1ccccc1)c1ccccc1 | 29.7 µM | 9.74 µM | 17.9 µM | – | – | – | – | – | – | – | – |
| Oc1cn(-c2ccc(Cl)cc2)nc1-c1n[nH]c(=S)n1-c1ccc(F)cc1 | – | – | – | > 100 µM | 60.1 µM | > 100 µM | 29.1 µM | 10.2 µM | > 100 µM | – | – |
| O=c1[nH]c(=S)[nH]c(O)c1/C=C1\C=Nc2ccccc21 | – | – | – | 6.19 µM | 33.6 µM | > 100 µM | 1.95 µM | 4.1 µM | 34.4 µM | – | – |
| COCOC1CCCC[C@@]1(OCCOCCO[C@@]1(c2ccccc2)CCCC[C@H]1OCOC)c1ccccc1 (stereo partly drawn) | > 100 µM | > 100 µM | > 100 µM | – | – | – | – | – | – | – | – |
| Cn1cc(-c2ccc3ncc(-c4ccc(CC(=O)Nc5cc(C(C)(C)C)nn5C)cc4)cc3c2)cn1 | – | – | – | > 20 µM | > 20 µM | 5.91 µM | 0.798 µM | 2.37 µM | 0.617 µM | – | – |
| COCc1cc2c(s1)C(=O)C1=C(C2=O)C2(C=C(Br)C(=O)C(Br)=C2)CCN1 | 24.4 µM | 3.34 µM | 28.4 µM | 30.6 µM | 15.2 µM | 9.2 µM | – | – | – | – | 3.11 µM |
